Assays:
FLT2 = test: Kinase inhibition screening (Luceome); assay type: biochemical, human; details: 10 μM
Source text: It is well established that dysfunctional and unregulated kinase activity plays significant roles in cancer initiation and progression. […] Inspection of the data provides several interesting observations. […] These inhibitory effects at this concentration are consistent with their measured IC50 values that are also in the μM range (Table 1). In addition, several kinases display overlapping inhibitory responses to both gold(I) compounds. Many of these are of particular interest since they are involved in cancer initiation and/or progression. For example, the Aurora kinase family members, Aurora A and Aurora B, as well as the MARK2 and MARK3 kinases function during mitosis to regulate cell division. These kinases are important therapeutic targets as their activities are often deregulated in many types of cancers. Other kinases such as RPS6KA3 and MLK3 are involved in the MAP kinase and JNK pathways which are also important in cancer progression.

ITK = target: T1, ITK (Homo sapiens, UniProt Q08881); test: Kinase inhibition screening (Luceome); assay type: biochemical; details: 10 μM
T1 construct: purchased Luceome Biotechnologies (Tucson, Ariz.)
T1 sequence (Q08881 whole entry): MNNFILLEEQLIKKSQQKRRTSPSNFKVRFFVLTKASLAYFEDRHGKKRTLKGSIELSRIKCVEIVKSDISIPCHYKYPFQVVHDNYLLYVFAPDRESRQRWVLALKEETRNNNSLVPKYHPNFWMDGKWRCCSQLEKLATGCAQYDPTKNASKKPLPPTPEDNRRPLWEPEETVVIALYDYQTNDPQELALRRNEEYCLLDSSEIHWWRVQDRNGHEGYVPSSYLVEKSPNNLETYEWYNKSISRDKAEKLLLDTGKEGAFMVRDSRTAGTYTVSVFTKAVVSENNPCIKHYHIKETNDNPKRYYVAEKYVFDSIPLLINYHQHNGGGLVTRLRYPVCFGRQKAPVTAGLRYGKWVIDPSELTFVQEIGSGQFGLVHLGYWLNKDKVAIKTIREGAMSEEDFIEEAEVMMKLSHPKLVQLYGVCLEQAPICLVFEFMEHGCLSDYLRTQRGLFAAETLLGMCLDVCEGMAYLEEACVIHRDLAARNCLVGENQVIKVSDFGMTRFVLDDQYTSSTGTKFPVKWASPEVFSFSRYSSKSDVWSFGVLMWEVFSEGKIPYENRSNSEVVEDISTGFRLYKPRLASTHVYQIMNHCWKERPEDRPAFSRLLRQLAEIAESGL

MARK1 = target: T2, MARK1 (Homo sapiens, UniProt Q9P0L2); test: Kinase inhibition screening (Luceome); assay type: biochemical; details: 10 μM
T2 construct: purchased Luceome Biotechnologies (Tucson, Ariz.)
T2 sequence (Q9P0L2 whole entry): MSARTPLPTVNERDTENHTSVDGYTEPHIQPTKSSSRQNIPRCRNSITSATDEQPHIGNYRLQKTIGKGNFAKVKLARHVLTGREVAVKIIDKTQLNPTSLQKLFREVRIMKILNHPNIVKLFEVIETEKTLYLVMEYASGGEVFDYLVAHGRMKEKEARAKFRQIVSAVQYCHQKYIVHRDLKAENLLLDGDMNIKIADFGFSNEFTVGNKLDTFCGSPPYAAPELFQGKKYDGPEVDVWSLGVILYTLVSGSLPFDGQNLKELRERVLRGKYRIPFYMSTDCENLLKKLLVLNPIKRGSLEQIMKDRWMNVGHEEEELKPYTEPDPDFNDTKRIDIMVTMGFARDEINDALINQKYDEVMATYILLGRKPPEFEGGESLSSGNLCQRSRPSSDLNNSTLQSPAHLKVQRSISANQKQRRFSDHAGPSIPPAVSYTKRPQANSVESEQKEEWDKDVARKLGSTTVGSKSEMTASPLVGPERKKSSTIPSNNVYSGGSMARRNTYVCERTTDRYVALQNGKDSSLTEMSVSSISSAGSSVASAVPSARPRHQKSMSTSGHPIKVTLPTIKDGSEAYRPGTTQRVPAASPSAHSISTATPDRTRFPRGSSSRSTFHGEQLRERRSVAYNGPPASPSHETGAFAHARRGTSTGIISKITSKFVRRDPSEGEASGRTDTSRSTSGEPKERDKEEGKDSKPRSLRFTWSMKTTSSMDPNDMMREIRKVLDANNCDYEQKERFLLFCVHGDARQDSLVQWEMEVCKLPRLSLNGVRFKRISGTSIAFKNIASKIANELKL

rat liver TrxR = rat liver TrxR (Rattus norvegicus, UniProt O89049); test: Thioredoxin reductase inhibition (DTNB assay); details: 40 μM compound, 600 nM TrxR, 25° C.
Chain of rat liver TrxR (O89049 whole entry): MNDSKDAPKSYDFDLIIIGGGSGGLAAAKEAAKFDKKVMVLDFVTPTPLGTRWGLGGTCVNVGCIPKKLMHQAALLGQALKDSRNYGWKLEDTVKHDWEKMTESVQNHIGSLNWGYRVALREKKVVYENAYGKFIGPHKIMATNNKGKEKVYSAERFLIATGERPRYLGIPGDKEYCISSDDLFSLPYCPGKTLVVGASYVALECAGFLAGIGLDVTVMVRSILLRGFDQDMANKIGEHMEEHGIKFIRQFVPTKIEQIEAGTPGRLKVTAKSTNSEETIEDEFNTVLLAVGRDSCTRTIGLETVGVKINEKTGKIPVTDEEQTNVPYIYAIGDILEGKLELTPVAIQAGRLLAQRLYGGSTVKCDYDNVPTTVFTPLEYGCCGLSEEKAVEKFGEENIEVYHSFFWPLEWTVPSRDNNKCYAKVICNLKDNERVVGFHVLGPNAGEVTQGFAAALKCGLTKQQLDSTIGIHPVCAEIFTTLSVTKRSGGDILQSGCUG

BSA = BSA (Bos taurus, UniProt P02769); test: Reactivity of Au(I)-compounds with BSA thiol (DTNB -SH titer); design: species or system bovine; details: 120 μM compound, Au(I)/BSA ratios up to 4:1, one hour, 37° C., PBS
Chain of BSA (P02769 25-607): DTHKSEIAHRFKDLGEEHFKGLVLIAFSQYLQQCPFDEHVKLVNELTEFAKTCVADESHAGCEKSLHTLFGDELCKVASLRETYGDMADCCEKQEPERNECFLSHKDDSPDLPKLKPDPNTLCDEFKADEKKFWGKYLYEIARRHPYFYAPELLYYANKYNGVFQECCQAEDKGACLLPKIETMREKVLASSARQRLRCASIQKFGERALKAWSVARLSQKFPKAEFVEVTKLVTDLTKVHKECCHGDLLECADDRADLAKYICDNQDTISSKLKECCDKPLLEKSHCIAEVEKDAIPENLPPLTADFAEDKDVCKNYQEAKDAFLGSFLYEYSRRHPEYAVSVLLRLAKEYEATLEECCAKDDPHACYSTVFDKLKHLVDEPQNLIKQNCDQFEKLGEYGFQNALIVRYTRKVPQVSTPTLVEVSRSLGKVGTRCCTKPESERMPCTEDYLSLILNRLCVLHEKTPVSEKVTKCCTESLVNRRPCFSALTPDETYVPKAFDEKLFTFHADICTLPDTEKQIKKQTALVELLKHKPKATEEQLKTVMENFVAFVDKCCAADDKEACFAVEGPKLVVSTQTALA
Description: PBS was used as the reaction buffer.
We tested the ability of various Au(I)-complexes to non-selectively react with BSA. […] P2 resin was effective in retaining Au(I)-containing compounds including compound 3 and compound 4. However, BSA was not retained in the resin as >95% of the BSA loaded into the Penefsky column is recovered in the eluant. […] Values obtained from reactions containing BSA incubated with the various Au(I) complexes were compared to identical reactions containing BSA alone and eluted through Penefsky columns.

SMILES	% Inhibition FLT2 (FLT2) [%]	% Inhibition ITK (ITK) [%]	% Inhibition MARK1 (MARK1) [%]	inhibition of TrxR activity (rat liver TrxR) [%]	reactivity with BSA (relative thiol content, -SH titer) (BSA)
CC(C)(C)OC(=O)n1ccc2c[c]([Au-][P+](C3CCCCC3)(C3CCCCC3)C3CCCCC3)ccc21 [Compound 4, 5-{Tricyclohexylphosphine aurate(I)}-tert-butyl1H-indole-1-carboxylate]	0	3.1	11.9	–	–
CC(C)(C)OC(=O)n1ccc2c[c]([Au-][P+](c3ccccc3)(c3ccccc3)c3ccccc3)ccc21 [Compound 3, 5-{Triphenylphosphine aurate(I)}-tert-butyl1H-indole-1-carboxylate]	–	–	–	17	relative thiol content of BSA remains unchanged

Reference: patent publication US9821173B2, “Anti-cancer agents and methods of use” (Case Western Reserve University, priority 2013, dated 2017)
